Measurements as given in patent publication US8664225B2, “1-[2-(2,4-dimethylphenylsulfanyl)-phenyl] piperazine as a compound with combined serotonin reuptake, 5-HT3 and 5-HT1A activity for the treatment of pain or residual symptoms in depression relating to sleep and cognition” (H. Lundbeck A/S, priority 2007, dated 2014).
Where two headings read alike, the source gives them in different places.

Key:
physchem = details: water
Sprague-Dawley rats = assay: Contextual fear conditioning in rats; assay type: in vivo, rat; details: 1, 5 and 10 mg/kg s.c. 1 h prior to acquisition, any dose tested
From the text: The compound administered in the present experiment was 1-[2-(2,4-dimethylphenylsulfanyl)phenyl]piperazine HBr salt.
We have studied the effect of the compound on acquisition, consolidation and recall of contextual fear conditioning in rats. In the fear conditioning paradigm animals learn to associate a neutral environment (context, the training chamber, CS) with an aversive experience (an electrical foot-shock, US). During re-exposure to the training chamber, animals express a freezing behaviour, which is taken as a direct measure of the fear-related memory [Pavlov J. Biol. Sci., 15, 177-182, 1980]. […] Neurosci., 106, 274-285, 1992].
Adult male Sprague-Dawley rats (weighing 250-300 g at time of training) from Charles River Laboratories, housed two per cage under a 12 h light/dark cycle, were used. Food and water were available ad libitum. […]
During the acquisition animals were allowed to freely explore the novel environment for a 1 min habituation period, which co-terminated with one inescapable foot-shock (unconditioned stimulus, US) through the electrifiable grid floor. […] Freezing behaviour was scored during the first 58 s (pre-shock acquisition; experimenter blinded to groups) to determine baseline-freezing responses to the context. […] Freezing behaviour was scored during the whole test period with the experimenter blinded to groups and presented as percent of total test period.

[1] = test system: extra-cellular levels of ACh; assay: Extracellular acetylcholine levels in brain of freely moving rats (microdialysis); assay type: in vivo, rat; details: 2.5-10 mg/kg s.c.
Procedure: The animals were administered 1-[2-(2,4-dimethylphenylsulfanyl)phenyl]piparazine, HBr salt.
Male Sprague-Dawley rats, initially weighing 275-300 g, were used. The animals were housed under a 12-hr light/dark cycle under controlled conditions for regular in-door temperature (21±2° C.) and humidity (55±5%) with food and tap water available ad libitum.
Rats were anaesthetised with hypnorm/dormicum (2 ml/kg) and intracerebral guide cannulas (CMA/12) were stereotaxically implanted into the brain, aiming at positioning the dialysis probe tip in the ventral hippocampus (co-ordinates: 5.6 mm posterior to bregma, lateral −5.0 mm, 7.0 mm ventral to dura) or in the prefrontal cortex (co-ordinates: 3.2 mm anterior to bregma; lateral, 0.8 mm; 4.0 mm ventral to dura). […] The body temperature of the animals was monitored by rectal probe and maintained at 37° C. […]
The compound dissolved in 10% HPbetaCD and injected subcutaneously (2.5-10 mg/kg). Doses are expressed as mg salt/kg body weight. […]
Concentration of acetylcholine (ACh) in the dialysates was analysed by means of HPLC with electrochemical detection using a mobile phase consisting of 100 mM disodium hydrogenphosphate, 2.0 mM octane sulfonic acid, 0.5 mM tetramethyl-ammonium chloride and 0.005% MB (ESA), pH 8.0. […] The latter was detected electrochemical by using a platinum electrode (Analytical cell: ESA, model 5040). […]

rat = assay: Chronic constriction nerve injury model; assay type: in vivo; details: 7.9 mg/kg s.c., 60 minutes, FIG. 26
Procedure: This model of neuropathic pain involves the application of four loose ligations around one sciatic nerve of the rat over a period of time to develop both hyperalgesia and allodynia. The effect of test compounds in this test is measured as the time to withdraw the paw upon a thermal stimuli.

[2] = Hygroscopicity (water absorption at relative humidity); assay type: physicochemical
From the text: Some compounds are hygroscopic, i.e. the absorb water when exposed to humidity. Hygroscopicity is generally regarded as an undesired property for compounds that are to be presented in a pharmaceutical formulation, in particular in a dry formulation, such as tablets. In one embodiment, the invention provides the use of crystals with low hygroscopicity. For oral dosage forms using crystalline active ingredients it is also beneficial if said crystals are well-defined. In the present context, the term “well-defined” in particular means that the stoichiometry is well-defined, i.e. that the ratio between the ions forming the salt is the ratio between small integers, such as 1:1, 1:2, 2:1, 1:1:1, etc. In one embodiment, the compound I forms well-defined crystals.

## Cc1ccc(Sc2ccccc2N2CCNCC2)c(C)c1.O=C(O)C(O)C(O)C(=O)O [L-(+)-tartrate, 1-[2-(2,4-Dimethylphenylsulfanyl)-phenyl]piperazine (+)-tartaric acid]
physchem
  solubility: ~400 µg/mL

## Br.Cc1ccc(Sc2ccccc2N2CCNCC2)c(C)c1 [alpha form of the hydrobromide, 1-[2-(2,4-Dimethylphenylsulfanyl)-phenyl]piperazine hydrobromide]
physchem
  solubility: 2000 µg/mL

## Br.Cc1ccc(Sc2ccccc2N2CCNCC2)c(C)c1 [compound I (HBr salt), 1-[2-(2,4-dimethylphenylsulfanyl)phenyl]piperazine HBr salt]
Sprague-Dawley rats
  baseline freezing behaviour before the foot shock: does not affect
[1]; FIG. 19a
  extra-cellular levels of ACh in prefrontal cortex: significantly increased
[1]; FIG. 19b
  extra-cellular levels of ACh in ventral hippocampus: significantly increased
rat
  withdrawal latency following a thermal stimuli: significant and dose-dependant withdrawal latency

## Cc1ccc(Sc2ccccc2N2CCNCC2)c(C)c1 [crystalline base, 1-[2-(2,4-Dimethylphenylsulfanyl)-phenyl]piperazine]
[2]
  hygroscopicity (in words): not hygroscopic

## Cc1ccc(Sc2ccccc2N2CCNCC2)c(C)c1 [fumarate, 1-[2-(2,4-Dimethylphenylsulfanyl)-phenyl]piperazine]
Solubility in water
  solubility in water: 400 µg/mL

## Br.Cc1ccc(Sc2ccccc2N2CCNCC2)c(C)c1 [gamma form of the hydrobromide, 1-[2-(2,4-Dimethylphenylsulfanyl)-phenyl]piperazine hydrobromide]
[2]; 30% RH at room temperature
  water absorbed at 30% RH: about 2%

## Br.Cc1ccc(Sc2ccccc2N2CCNCC2)c(C)c1 [hemi hydrate of the hydrobromide, 1-[2-(2,4-Dimethylphenylsulfanyl)-phenyl]piperazine hydrobromide]
[2]; room temperature and 95% RH
  water content: about 3.7%

## Cc1ccc(Sc2ccccc2N2CCNCC2)c(C)c1.Cl [hydrochloride monohydrate, 1-[2-(2,4-Dimethylphenylsulfanyl)-phenyl]piperazine HCl]
Solubility in water; HCl
  solubility in water: about 2 mg/ml
[2]
  hygroscopicity (in words): does not absorb further amount of water

## Cc1ccc(Sc2ccccc2N2CCNCC2)c(C)c1.Cl [hydrochloride, 1-[2-(2,4-Dimethylphenylsulfanyl)-phenyl]piperazine hydrochloride]
physchem
  solubility: 3000 µg/mL

## Cc1ccc(Sc2ccccc2N2CCNCC2)c(C)c1.O=C(O)/C=C\C(=O)O [maleate, 1-[2-(2,4-Dimethylphenylsulfanyl)-phenyl]piperazine Maleate]
physchem
  solubility: ~1000 µg/mL

## CS(=O)(=O)O.Cc1ccc(Sc2ccccc2N2CCNCC2)c(C)c1 [mesylate, 1-[2-(2,4-Dimethylphenylsulfanyl)-phenyl]piperazine mesylate]
physchem
  solubility: > 45000 µg/mL

## Cc1ccc(Sc2ccccc2N2CCNCC2)c(C)c1.O=[N+]([O-])O [nitrate, 1-[2-(2,4-Dimethylphenylsulfanyl)-phenyl]piperazine nitrate]
physchem
  solubility: ~800 µg/mL

## Cc1ccc(Sc2ccccc2N2CCNCC2)c(C)c1.O=P(O)(O)O [phosphate, 1-[2-(2,4-Dimethylphenylsulfanyl)-phenyl]piperazine phosphate]
physchem
  solubility: ~1000 µg/mL

## Cc1ccc(Sc2ccccc2N2CCNCC2)c(C)c1.O=S(=O)(O)O [sulphate, 1-[2-(2,4-Dimethylphenylsulfanyl)-phenyl]piperazine sulphate]
physchem
  solubility: ~100 µg/mL
